Reference: patent US20250000847A1, “TREATMENT OF NEURODEGENERATIVE DISEASES WITH HDAC INHIBITORS” (CASE WESTERN RESERVE UNIVERSITY, priority 2021, published 2025)

Key:
[1] = system: genes associated with damaging and beneficial reactive astrocytes; assay: Bulk RNAseq of reactive astrocytes; assay type: cell-based, mouse
Text: Total RNA was extracted from resting and reactive astrocytes using the same procedure as described for qPCR and sent to Novogene for mRNA Sequencing.
For gene expression analysis, reads were mapped to the mm10 genome using kallisto 0.46.1 (Bray et al., Nat Biotechnol 34, 525-527, doi:10.1038/nbt.3519 (2016)). Transcripts were summarized to the gene level with tximport (Soneson et al., F1OORes 4, 1521, doi:10.12688/fl000research.7563.2 (2015). Normalized expression and differentiation gene expression was then generated using DESEQ2 (Love et al., Genome Biol 15, 550, doi:10.1186/s13059-014-0550-8 (2014)).

[2] = system: NF-κB (RelA/P65) transcriptional activity; assay: NF-κB Jurkat reporter assay; assay type: cell-based
Text: NF-κB luciferase reporter Jurkat T-cells were used to measure NF-κB transcriptional activity in response to reactive astrocyte driving cytokines with or HDAC inhibitors and other validated hits from the primary screen. NFκB luciferase reporter Jurkat T-Cells (BPS Biosciences 60651) were purchased from BPS Bioscience. Within this cell line, the firefly luciferase gene is controlled by four copies of an NF-κB response element located upstream of the TATA promoter. Following activation by an external stimulant, endogenous NF-κB transcription factors bound to the DNA response elements to induce transcription of the luciferase gene.

spinal cord LPC lesion = assay: Lysolecithin (LPC) injection model of focal tissue damage; assay type: in vivo, mouse
Description: This was based on a toxin-based model of CNS tissue damage, where lysolecithin (lysophosphatidylcholine (LPC)) is injected into the dorsal column of the spinal cord leading to cell death, demyelination, and axonal damage at 4 days post lesion (dpl).
Focal tissue damage in the spinal cord was induced by the injection of 1% LPC solution. 10-12 week old C57BL/6 female mice were anesthetized using isoflurane and a T10 laminectomy was performed. 1 μL of 1% LPC was infused into the dorsal column at a rate of […]. The animals were euthanized at day twelve after the laminectomy (n=6-9 per group). […] Mice were then processed for immunohistochemistry or electron microscopy.
Samples were processed as previously described (Najm et al., Nat Methods 8, 957-962, doi:10.1038/nmeth.1712 (2011)). Briefly, Mice were perfused with 4% PFA, 2% glutaraldehyde, and 0.1 M sodium cacodylate. Spinal cords were extracted and samples were osmicated, stained en bloc with uranyl acetate and embedded in EMbed 812, an Epon-812 substitute (EMS). Thin sections were cut, carbon-coated and imaged either on JEOL JEM-1200-EX electron microscope or a T12 electron microscope (FEI).

[3] = system: retinal ganglion cells (RGCs); assay: Optic nerve crush model of neurodegeneration; assay type: in vivo, mouse; details: 10 mg/kg daily i.p. for 14 days after optic nerve crush
Text: The optic nerve of adult mice was surgically accessed and crushed. […] 14 days after optic nerve crush surgery, retina were harvested and stained for the RGC marker BRN3A, and the pan neuronal maker BIII-tubulin.

RelA/P65 = assay: Nuclear RelA/P65 in reactive astrocytes; assay type: cell-based, mouse
Description: For immunocytochemistry, cells were fixed with ice-cold 4% PFA for 15 minutes at room temperature, washed three times with PBS, blocked and permeabilized with 10% donkey serum and 0.1% Triton X-100 in PBS for 1 hr, and then stained with primary overnight followed by three washes with PBS, and then 1 hr incubation with Alexaflour secondary antibodies and DAPI. Stained cells were imaged using the PerkinElmer Operetta CLS High-Content Analysis System and analyzed using automated scripts in PerkinElmer Columbus Image Analysis software. Primary antibodies used were GBP2 (ProteinTech, 11854-1-AP), vimentin (BioLegend, 919101), RelA/P65 (Cell Signaling Tech, 6956), MBP (Abeam, AB7349).

[4] = system: GBP2+ reactive astrocytes; assay: Primary high-throughput screen, formation of GBP2+ damaging reactive astrocytes; assay type: cell-based, mouse; details: 2 μM, TNFα, IL-1α, C1q, 24 hours
Description: Specifically, resting astrocytes were first thawed and plated onto 384-well plates at a density of about 500 cells/mm^2. A Perkin Elmer Janus G3 Varispan Automated Workstation was then used to treat cells with candidate small-molecules from a library of 3115 bioactive small-molecules, with one type of small molecule per well, at a concentration of about 2 μM in 384-well plates, followed one hour later by exposing the pre-treated astrocytes with such reactive astrocyte driving factors as IL-1α (3 ng/mL, Sigma #I3901), C1q (400 ng/mL, MyBioSource #MBS143105), and TNFα (30 ng/mL, R&D Systems #210-TA-020). […]
The cells were then imaged using the PerkinElmer Operetta CLS High-Content Analysis System. Images were analyzed using automated PerkinElmer Columbus Image Analysis Software.
Hits were then determined as those compounds that decreased the number of GBP2^+ reactive astrocytes by greater than 80% compared to reactive astrocytes plus DMSO vehicle control wells. […]
For screening, all liquid handling was performed using a BioTek EL406 Washer Dispenser. […] Images were analyzed using automated PerkinElmer Columbus Image Analysis Software. For analysis, toxic chemicals were first removed; a chemical was considered toxic if it decreased the counted number of live cells in the well by greater than 30% compared to reactive astrocytes plus DMSO vehicle control wells. […]

[5] = 10 mg/kg daily, lesion at 12 dpl

## Nc1cc(F)ccc1NC(=O)/C=C/c1cnn(C/C=C/c2ccccc2)c1 [RGFP966]
[1]
  expression of genes associated with beneficial reactive astrocytes (BRA): increasing expression
  expression of genes associated with damaging reactive astrocytes (DRA): decreased expression
[2]
  RelA/P65 driven transcription (transcriptional activity): decreases
Spinal cord LPC lesion; 10 mg/kg daily from −1 dpl, at 12 dpl, compared to vehicle-treated LPC mice
  tissue repair: accelerated tissue repair
Spinal cord LPC lesion; [5]
  axons/mm^2: increased
  percentage of axons remyelinated: increased
  total axons in lesions: increased
  total remyelinated: increased
[3]
  protection of retinal ganglion cells (RGCs) from neurodegeneration: protects
RelA/P65
  nuclear RelA/P65: decreases
[4]
  inhibition of the formation of proinflammatory toxic (reactive) astrocytes: robustly inhibit
